Columns and labels:
Assay type in all cases: in vivo
soybean (Glycine max) = assay: Test C postemergence
Method in brief: (§1)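 Visual 0–100 rating vs controls (0 = no effect, 100 = complete control) at 12–14 d, greenhouse. Compounds in non-phytotoxic solvent + surfactant; pre: sprayed after seeding; post: 1–4-leaf plants, 2–18 cm.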

corn (Zea mays) = assay: Test C postemergence
Method in brief: as §1

[1] = system: giant foxtail (Setaria faberii); assay: Test C postemergence
Method in brief: as §1

[2] = system: pigweed (Amaranthus retroflexus); assay: Test C postemergence
Method in brief: as §1

[3] = system: crabgrass (Digitaria sanguinalis); assay: Test C postemergence
Method in brief: as §1

[4] = system: common ragweed (Ambrosia elatior); assay: Test C postemergence
Method in brief: as §1

kochia (Kochia scoparia) [5] = assay: Test C postemergence
Method in brief: as §1

[6] = system: woolly cupgrass (Eriochloa villosa); assay: Test C postemergence
Method in brief: as §1

[7] = system: velvetleaf (Abutilon theophrasti); assay: Test C postemergence
Method in brief: as §1

[8] = system: bermudagrass (Cynodon dactylon); assay: Test C postemergence
Method in brief: as §1

[9] = system: Surinam grass (Brachiaria decumbens); assay: Test C postemergence
Method in brief: as §1

[10] = system: morningglory (Ipomoea hederacea); assay: Test C postemergence
Method in brief: as §1

[11] = system: yellow nutsedge (Cyperus esculentus); assay: Test C postemergence
Method in brief: as §1

[12] = system: johnsongrass (Sorghum halepense); assay: Test C postemergence
Method in brief: as §1

[13] = system: goosegrass (Eleusine indica); assay: Test C postemergence
Method in brief: as §1

[14] = system: cocklebur (Xanthium strumarium); assay: Test C postemergence
Method in brief: as §1

[15] = system: lambsquarters (Chenopodium album); assay: Test C postemergence
Method in brief: as §1

[16] = system: chickweed (Stellaria media); assay: Test C postemergence
Method in brief: as §1

Sunflower = assay: Test C preemergence; settings: Rate 500 g/ha, visual evaluation after 12 to 14 days
[17] = system: common ragweed (Ambrosia elatior); assay: Test C preemergence; settings: for Plant response rating (0 to 100), Ragweed, Common: Rate 500 g/ha, visual evaluation after 12 to 14 days
Method in brief: as §1

kochia (Kochia scoparia) [18] = assay: Test C preemergence; settings: for Plant response rating (0 to 100), Kochia: Rate 500 g/ha, visual evaluation after 12 to 14 days
Method in brief: as §1

Nightshade = assay: Test C preemergence
[19] = system: cocklebur (Xanthium strumarium); assay: Test C preemergence; settings: for Plant response rating (0 to 100), Cocklebur: Rate 500 g/ha, visual evaluation after 12 to 14 days
Method in brief: as §1

[20] = Rate 250 g/ha, scale 0 to 100 (0 no effect, 100 complete control)
[21] = Rate 500 g/ha, scale 0 to 100 (0 no effect, 100 complete control)
[22] = Rate 125 g/ha, scale 0 to 100, 0 no effect, 100 complete control
[23] = preemergence, Rate 62 g/ha, scale 0 to 100
[24] = preemergence, Rate 250 g/ha, scale 0 to 100, 0 no effect, 100 complete control
[25] = Rate 250 g/ha, scale 0 to 100, 0 no effect, 100 complete control

CCC(CC)c1ccn(C2CCN(c3ccc(Br)c(OC)c3)C2=O)n1 (stereo not shown) [Compound 143]
Plant response rating, Soybean (soybean (Glycine max); Rate 62 g/ha, scale 0 to 100): 60
Plant response rating, Soybean (soybean (Glycine max); [20]): 100
Plant response rating, Soybean (soybean (Glycine max); [21]): 100
Plant response rating, Corn (corn (Zea mays); Rate 62 g/ha, scale 0 to 100): 0
Plant response rating, Corn (corn (Zea mays); [20]): 0
Plant response rating, Corn (corn (Zea mays); [21]): 30
Plant response rating, Corn (corn (Zea mays); scale 0 to 100): 0
Plant response rating, Foxtail, Giant ([1]; Rate 62 g/ha, scale 0 to 100): 30
Plant response rating, Foxtail, Giant [1, 20]: 80
Plant response rating, Foxtail, Giant [1, 21]: 90
Plant response rating, Pigweed ([2]; Rate 62 g/ha, scale 0 to 100): 70
Plant response rating, Pigweed [2, 20]: 70
Plant response rating, Pigweed [2, 21]: 90
Plant response rating, Crabgrass ([3]; Rate 62 g/ha, scale 0 to 100): 40
Plant response rating, Crabgrass [3, 20]: 70
Plant response rating, Crabgrass [3, 21]: 70
Plant response rating, Ragweed, Common ([4]; Rate 62 g/ha, scale 0 to 100): 20
Plant response rating, Ragweed, Common [4, 20]: 90
Plant response rating, Ragweed, Common [4, 21]: 90
Plant response rating, Kochia (kochia (Kochia scoparia) [5]; Rate 62 g/ha, scale 0 to 100): 40
Plant response rating, Kochia (kochia (Kochia scoparia) [5]; [20]): 90
Plant response rating, Kochia (kochia (Kochia scoparia) [5]; [21]): 90
Plant response rating, Cupgrass, Woolly ([6]; Rate 62 g/ha, scale 0 to 100): 40
Plant response rating, Cupgrass, Woolly [6, 20]: 60
Plant response rating, Cupgrass, Woolly [6, 21]: 70
Plant response rating, Velvetleaf ([7]; Rate 62 g/ha, scale 0 to 100): 40
Plant response rating, Velvetleaf [7, 20]: 80
Plant response rating, Velvetleaf [7, 21]: 90
Plant response rating, Velvetleaf ([7]; scale 0 to 100): 40
Plant response rating, Bermudagrass ([8]; Rate 62 g/ha, scale 0 to 100): 20
Plant response rating, Bermudagrass [8, 22]: 40
Plant response rating, Bermudagrass [8, 20]: 70
Plant response rating, Bermudagrass [8, 21]: 80
Plant response rating, Surinam grass ([9]; Rate 62 g/ha, scale 0 to 100): 20
Plant response rating, Surinam grass [9, 22]: 20
Plant response rating, Surinam grass [9, 20]: 50
Plant response rating, Surinam grass [9, 21]: 70
Plant response rating, Morningglory ([10]; Rate 62 g/ha, scale 0 to 100): 90
Plant response rating, Morningglory [10, 20]: 100
Plant response rating, Morningglory [10, 21]: 100
Plant response rating, Nutsedge ([11]; Rate 62 g/ha, scale 0 to 100): 0
Plant response rating, Nutsedge [11, 20]: 0
Plant response rating, Nutsedge [11, 21]: 0
Plant response rating, Johnsongrass ([12]; Rate 62 g/ha, scale 0 to 100): 0
Plant response rating, Johnsongrass [12, 20]: 30
Plant response rating, Johnsongrass [12, 21]: 30
Plant response rating, Johnsongrass ([12]; rate not given, scale 0 to 100): 10
Plant response rating, Goosegrass ([13]; Rate 62 g/ha, scale 0 to 100): 30
Plant response rating, Goosegrass [13, 20]: 60
Plant response rating, Goosegrass [13, 21]: 70
Plant response rating, Cocklebur ([14]; Rate 62 g/ha, scale 0 to 100): 20
Plant response rating, Cocklebur [14, 20]: 90
Plant response rating, Cocklebur [14, 21]: 90
Plant response rating, Lambsquarters ([15]; Rate 62 g/ha, scale 0 to 100): 90
Plant response rating, Lambsquarters [15, 20]: 90
Plant response rating, Lambsquarters [15, 21]: 100
Plant response rating, Chickweed ([16]; Rate 62 g/ha, scale 0 to 100): 100
Plant response rating, Chickweed [16, 22]: 100
Plant response rating (0 to 100), Sunflower (Sunflower): 90
Plant response rating, Ragweed, Common [17, 22]: 100
Plant response rating, Ragweed, Common [17, 23]: 90
Plant response rating (0 to 100), Ragweed, Common ([17]; preemergence): 100
Plant response rating, Ragweed, Common [17, 24]: 100
Plant response rating, Kochia (kochia (Kochia scoparia) [18]; [22]): 100
Plant response rating, Kochia (kochia (Kochia scoparia) [18]; [23]): 100
Plant response rating (0 to 100), Kochia (kochia (Kochia scoparia) [18]; preemergence): 100
Plant response rating, Kochia (kochia (Kochia scoparia) [18]; [24]): 100
Plant response rating, Nightshade (Nightshade; Rate 62 g/ha, scale 0 to 100): 100
Plant response rating, Nightshade (Nightshade; [22]): 100
Plant response rating, Nightshade (Nightshade; [25]): 100
Plant response rating, Cocklebur [19, 22]: 50
Plant response rating (0 to 100), Cocklebur ([19]; preemergence): 55
Plant response rating, Cocklebur [19, 24]: 50

COc1cc(N2CCC(n3ccc(C(C)(C)C)n3)C2=O)ccc1Br (stereo not shown) [Compound 141]
Plant response rating, Soybean (soybean (Glycine max); Rate 62 g/ha, scale 0 to 100): 90
Plant response rating, Soybean (soybean (Glycine max); [20]): 100
Plant response rating, Soybean (soybean (Glycine max); [21]): 100
Plant response rating, Corn (corn (Zea mays); Rate 62 g/ha, scale 0 to 100): 0
Plant response rating, Corn (corn (Zea mays); [20]): 0
Plant response rating, Corn (corn (Zea mays); [21]): 0
Plant response rating, Corn (corn (Zea mays); scale 0 to 100): 0
Plant response rating, Foxtail, Giant [1, 20]: 80
Plant response rating, Pigweed ([2]; Rate 62 g/ha, scale 0 to 100): 70
Plant response rating, Pigweed [2, 20]: 70
Plant response rating, Pigweed [2, 21]: 100
Plant response rating, Crabgrass ([3]; Rate 62 g/ha, scale 0 to 100): 60
Plant response rating, Crabgrass [3, 20]: 60
Plant response rating, Crabgrass [3, 21]: 70
Plant response rating, Ragweed, Common ([4]; Rate 62 g/ha, scale 0 to 100): 20
Plant response rating, Ragweed, Common [4, 20]: 80
Plant response rating, Ragweed, Common [4, 21]: 90
Plant response rating, Kochia (kochia (Kochia scoparia) [5]; Rate 62 g/ha, scale 0 to 100): 10
Plant response rating, Kochia (kochia (Kochia scoparia) [5]; [20]): 80
Plant response rating, Kochia (kochia (Kochia scoparia) [5]; [21]): 90
Plant response rating, Cupgrass, Woolly ([6]; Rate 62 g/ha, scale 0 to 100): 30
Plant response rating, Cupgrass, Woolly [6, 20]: 50
Plant response rating, Cupgrass, Woolly [6, 21]: 70
Plant response rating, Velvetleaf ([7]; Rate 62 g/ha, scale 0 to 100): 50
Plant response rating, Velvetleaf [7, 20]: 50
Plant response rating, Velvetleaf [7, 21]: 80
Plant response rating, Velvetleaf ([7]; scale 0 to 100): 50
Plant response rating, Bermudagrass ([8]; Rate 62 g/ha, scale 0 to 100): 40
Plant response rating, Bermudagrass [8, 22]: 60
Plant response rating, Bermudagrass [8, 20]: 60
Plant response rating, Bermudagrass [8, 21]: 100
Plant response rating, Surinam grass ([9]; Rate 62 g/ha, scale 0 to 100): 20
Plant response rating, Surinam grass [9, 22]: 40
Plant response rating, Surinam grass [9, 20]: 60
Plant response rating, Surinam grass [9, 21]: 60
Plant response rating, Morningglory ([10]; Rate 62 g/ha, scale 0 to 100): 70
Plant response rating, Morningglory [10, 21]: 100
Plant response rating, Nutsedge ([11]; Rate 62 g/ha, scale 0 to 100): 0
Plant response rating, Nutsedge [11, 20]: 0
Plant response rating, Nutsedge [11, 21]: 0
Plant response rating, Johnsongrass ([12]; Rate 62 g/ha, scale 0 to 100): 20
Plant response rating, Johnsongrass [12, 20]: 30
Plant response rating, Johnsongrass [12, 21]: 40
Plant response rating, Johnsongrass ([12]; rate not given, scale 0 to 100): 30
Plant response rating, Goosegrass ([13]; Rate 62 g/ha, scale 0 to 100): 20
Plant response rating, Goosegrass [13, 20]: 50
Plant response rating, Goosegrass [13, 21]: 70
Plant response rating, Cocklebur ([14]; Rate 62 g/ha, scale 0 to 100): 70
Plant response rating, Cocklebur [14, 20]: 70
Plant response rating, Cocklebur [14, 21]: 100
Plant response rating, Lambsquarters ([15]; Rate 62 g/ha, scale 0 to 100): 70
Plant response rating, Lambsquarters [15, 21]: 100
Plant response rating, Chickweed ([16]; Rate 62 g/ha, scale 0 to 100): 90
Plant response rating, Chickweed [16, 22]: 100
Plant response rating, Chickweed [16, 20]: 100
Plant response rating, Chickweed [16, 21]: 100
Plant response rating (0 to 100), Sunflower (Sunflower): 100
Plant response rating, Ragweed, Common [17, 22]: 100
Plant response rating, Ragweed, Common [17, 23]: 100
Plant response rating (0 to 100), Ragweed, Common ([17]; preemergence): 100
Plant response rating, Ragweed, Common [17, 24]: 100
Plant response rating, Kochia (kochia (Kochia scoparia) [18]; [22]): 100
Plant response rating, Kochia (kochia (Kochia scoparia) [18]; [23]): 100
Plant response rating (0 to 100), Kochia (kochia (Kochia scoparia) [18]; preemergence): 100
Plant response rating, Kochia (kochia (Kochia scoparia) [18]; [24]): 100
Plant response rating, Nightshade (Nightshade; Rate 62 g/ha, scale 0 to 100): 100
Plant response rating, Nightshade (Nightshade; [22]): 100
Plant response rating, Nightshade (Nightshade; [25]): 100
Plant response rating, Cocklebur [19, 22]: 60
Plant response rating, Cocklebur [19, 23]: 0
Plant response rating (0 to 100), Cocklebur ([19]; preemergence): 100
Plant response rating, Cocklebur [19, 24]: 70
